# Assay results from patent US9453008B2, “Antithrombotic and antiatherosclerotic agent and method for producing same (variants)” (PROTON OOO, priority 2011, dated 2016).
# “Also recorded” adds a separate entry of the source. Marks after values point to notes of the source that are not given here.
# Assays:
# [1] = system: ADP-induced platelet aggregation; experiment: ADP-induced platelet aggregation following intravenous administration in rabbits; type: in vivo, rabbit
# Description: FIG. 1 is a graph showing the effect of the compound I and sodium nitroprusside on ADP-induced platelet aggregation following intravenous administration in rabbits (% compared to control).
# (§1) Antiplatelet activity was assessed by the effect of the compound on platelet aggregation of rabbit blood plasma, induced by ADP (adenosine diphosphate) and arachidonic acid. Platelet aggregation was assessed by the change of optical density of plasma. Studies were performed using both intravenous administration, in comparison with sodium nitroprusside, and oral administration, in comparison with acetylsalicylic acid. Compound I was used in concentrations of 10^−3-10^−7 M (parenteral administration) and in 4-8 and 12 mg/kg doses (oral administration).
# In order to make a final conclusion on the ability of the studied compound to inhibit platelet aggregation experiments were performed in conditions of living organism using intravenous and oral administration.
# Compound I and sodium nitroprusside (a reference drug) have both inhibited the process of platelet aggregation. However, there were considerable quantitative and temporal differences in their effects. […] This was the only time point where we managed to observe its activity. After 1 hour the effect disappeared.
# non-narcotized SHT rats = experiment: Blood pressure in non-narcotized SHT rats, intragastric administration (non-invasive BP measurement); type: in vivo, rat
# Description: In experiments on non-narcotized SHT rats intragastric administration of the compound of formula I has caused dose-dependent reduction of BP, the duration of which was increased correspondingly with dose increase (maximal duration of effect 5 hours after single administration of 50 mg/kg dose, Table 3).
# [2] = system: spontaneously hypertensive (SHT) rats; experiment: Blood pressure in narcotized SHT rats, intravenous administration; type: in vivo, rat
# Description: The experiments were performed on spontaneously hypertensive (SHT) and normotensive (NT) narcotized male rats using intravenous administration of the tested compounds. The ability of the compound to reduce arterial blood pressure (BP) in SHT rats and prevent spasmogenic reactions to noradrenalin (NA) and angiotensin I (AI).
# The compound of formula I was used as a solution in 3% aqueous DMSO. Sodium nitroprusside and nitroglycerin were used as reference drugs.
# The administration of the compound of formula I in dose range 0.01-0.1-0.5 and 1.0 mg/kg has exerted dose-dependent antihypertensive effect ranging in time from 30-40 s to 60 min and more.
# [3] = General toxicity and tolerability on animals; type: in vivo
# Description: Research of antiplatelet properties of the compound I, its effect on the activity of soluble guanylate cyclase and NO generation was performed by experimentation in vitro, its ability to exert hypotensive and antihypertensive action was studied on animals. General toxicity and tolerability of the compound of formula I were studied on animals.
# [4] = system: ADP-induced platelet aggregation; experiment: ADP-induced platelet aggregation of rabbit blood plasma, in vitro; type: cell-based; conditions: concentrations of 10^−3-10^−7 M; listed as compound of formula I
# Description: as §1
# rat hemostasis = experiment: Model of parenchymal hemorrhage (bleeding time) after oral administration; type: in vivo
# Description: The model of parenchymal hemorrhage characterizes hemostasis through the stimulation of coagulation cascade. Usually, it is rather difficult to obtain considerable change of bleeding time in these models with resorptive-acting compounds. Direct-action anticoagulants (heparin, heparinoids) prolong bleeding time in these models only in high doses, while the effect is detected at different time (up to 3 hours after the administration). Indirect-action […] drugs (oxycoumarines, indandiones, etc.) usually begin to increase bleeding after a certain delay period (12-48 hours after the administration), which is easily explainable by the modern understanding of their mechanism of action: they stop the biosynthesis of blood clotting plasma factors II, VII, IX, X, while the duration of delay period is determined by the amount of these factors, produced in the liver before the administration of vitamin K reductase inhibitors (oxycoumarines, indandiones).
# The duration of parenchymal hemorrhage in the control group was 88.9±1.2 s. Test groups of animals used in the experiments 60 minutes after oral administration of the compound of formula I. After the administration of 8 mg/kg dose the duration of parenchymal hemorrhage in test group increased by 71% compared to original condition, it further increased to 220.6±3.4 s after another hour.
# [5] = Cumulation after 28 days administration; type: in vivo
# Text: Acute toxicity of the compound in mice in internal administration is 8.9±0.75 g/kg, cumulation after 28 days administration is weak (lethality less than 50%).
# human neutrophils = experiment: FMLP-induced generation of superoxide anion radical by human neutrophils; type: cell-based; conditions: neutrophils weakened by pathological processes
# Text: We have also studied the effect of the compound on formylmethionyl-leucyl-phenylalanine (FMLP)—induced generation of superoxide anion radical (O2^−.) by human neutrophils, weakened by pathological processes (histiocytosis, stage 2 hypertension). Such experimentation was chosen due to the fact, that, in order to perform a complete phagocytosis with complete destruction of pathogenic microorganisms, phagocytes, including neutrophils, generate the so-called reactive oxygen species (ROS), including oxygen radicals and compounds easily converting into such radicals. Superoxide anion radical (O2^−.) hydroxyl radical (OH.) and lipid hydroxyperoxides (ROO*) also belong to AOF. All these compounds have one unpaired electron on outer molecular orbital, giving them high reactivity, which causes their interaction with cell molecules: proteins, RNA, DNA, etc, accompanied by the loss of their biological activity.
structure (smiles),measurement,setting,value
"CN1CC(CO)O/C1=C(C#N)/C=C1/Nc2ccccc2C1=O (stereo not drawn) [Compound I, 2-[2-Cyano-2-[5-(hydroxymethyl)-3-methyl-1,3-oxazolidin-2-ylidene]ethylidene]indolin-3-one]",Inhibition of induced functional activity of platelets compared with sodium nitroprusside,[1]; intravenous administration to rabbits,"as potent as that of sodium nitroprusside, but persists for a longer time"
same,Time at which inhibition of platelet aggregation stopped/disappeared,"[1]; intravenous, rabbits",3 h
same,Time of maximal potency of inhibition of platelet aggregation,"[1]; intravenous, rabbits",60 min
same,"Reduction of BP, mmHg","non-narcotized SHT rats; 1 mg/kg orally, time column 1 (hours), 1 h after dosing",20* mmHg
same,"Reduction of BP, mmHg","non-narcotized SHT rats; 1 mg/kg orally, time column 2, 2 h after dosing",10 mmHg
same,"Reduction of BP, mmHg","non-narcotized SHT rats; 1 mg/kg orally, time column 3, 0 - absence of effect, 3 h after dosing",0 mmHg
same,"Reduction of BP, mmHg","non-narcotized SHT rats; 1 mg/kg orally, time column 4, 0 - absence of effect, 4 h after dosing",0 mmHg
same,"Reduction of BP, mmHg","non-narcotized SHT rats; 1 mg/kg orally, time column 5, 0 - absence of effect, 5 h after dosing",0 mmHg
same,"Reduction of BP, mmHg","non-narcotized SHT rats; 1 mg/kg orally, time column 6, 0 - absence of effect, 6 h after dosing",0 mmHg
same,"Reduction of BP, mmHg","non-narcotized SHT rats; 5 mg/kg orally, time column 1, 1 h after dosing",17* mmHg
same,"Reduction of BP, mmHg","non-narcotized SHT rats; 5 mg/kg orally, time column 2, 2 h after dosing",20* mmHg
same,"Reduction of BP, mmHg","non-narcotized SHT rats; 5 mg/kg orally, time column 3, 3 h after dosing",32* mmHg
same,"Reduction of BP, mmHg","non-narcotized SHT rats; 5 mg/kg orally, time column 4, 4 h after dosing",30* mmHg
same,"Reduction of BP, mmHg","non-narcotized SHT rats; 5 mg/kg orally, time column 5, 5 h after dosing",15 mmHg
same,"Reduction of BP, mmHg","non-narcotized SHT rats; 5 mg/kg orally, time column 6, 0 - absence of effect, 6 h after dosing",0 mmHg
same,"Reduction of BP, mmHg","non-narcotized SHT rats; 10 mg/kg orally, time column 1, 0 - absence of effect, 1 h after dosing",23* mmHg
same,"Reduction of BP, mmHg","non-narcotized SHT rats; 10 mg/kg orally, time column 2, 0 - absence of effect, 2 h after dosing",30* mmHg
same,"Reduction of BP, mmHg","non-narcotized SHT rats; 10 mg/kg orally, time column 3, 0 - absence of effect, 3 h after dosing",37 mmHg
same,"Reduction of BP, mmHg","non-narcotized SHT rats; 10 mg/kg orally, time column 4, 0 - absence of effect, 4 h after dosing",35 mmHg
same,"Reduction of BP, mmHg","non-narcotized SHT rats; 10 mg/kg orally, time column 5, 0 - absence of effect, 5 h after dosing",17* mmHg
same,"Reduction of BP, mmHg","non-narcotized SHT rats; 10 mg/kg orally, time column 6, 0 - absence of effect, 6 h after dosing",0 mmHg
same,"Reduction of BP, mmHg","non-narcotized SHT rats; 25 mg/kg orally, time column 1, 1 h after dosing",26* mmHg
same,"Reduction of BP, mmHg","non-narcotized SHT rats; 25 mg/kg orally, time column 2, 2 h after dosing",32* mmHg
same,"Reduction of BP, mmHg","non-narcotized SHT rats; 25 mg/kg orally, time column 3, 3 h after dosing",45* mmHg
same,"Reduction of BP, mmHg","non-narcotized SHT rats; 25 mg/kg orally, time column 4, 4 h after dosing",45* mmHg
same,"Reduction of BP, mmHg","non-narcotized SHT rats; 25 mg/kg orally, time column 5, 5 h after dosing",25* mmHg
same,"Reduction of BP, mmHg","non-narcotized SHT rats; 25 mg/kg orally, time column 6, 0 - absence of effect, 6 h after dosing",0 mmHg
same,"Reduction of BP, mmHg","non-narcotized SHT rats; 50 mg/kg orally, time column 1, 1 h after dosing",25* mmHg
same,"Reduction of BP, mmHg","non-narcotized SHT rats; 50 mg/kg orally, time column 2, 2 h after dosing",42* mmHg
same,"Reduction of BP, mmHg","non-narcotized SHT rats; 50 mg/kg orally, time column 3, 3 h after dosing",50* mmHg
same,"Reduction of BP, mmHg","non-narcotized SHT rats; 50 mg/kg orally, time column 4, 4 h after dosing",50* mmHg
same,"Reduction of BP, mmHg","non-narcotized SHT rats; 50 mg/kg orally, time column 5, 5 h after dosing",25* mmHg
same,"Reduction of BP, mmHg","non-narcotized SHT rats; 50 mg/kg orally, time column 6, 0 - absence of effect, 6 h after dosing",0 mmHg
same,Maximal duration of BP-reducing effect,non-narcotized SHT rats; single intragastric administration of 50 mg/kg dose,5 h
same,Duration of BP reduction,[2]; 0.01 mg/kg dose intravenous,30 s
same,Reduction of BP,[2]; 0.01 mg/kg dose intravenous,10-12 mmHg
same,"Reduction of BP, mmHg (Δ)","[2]; 0.01 mg/kg intravenously, 10-20 s",−12 ± 5 mmHg
same,"Reduction of BP, mmHg (Δ)","[2]; 0.1 mg/kg intravenously, 10-20 s",−15 ± 5 mmHg
same,"Reduction of BP, mmHg (Δ)","[2]; 0.1 mg/kg intravenously, 5 min",−20 ± 7 mmHg
same,"Reduction of BP, mmHg (Δ)","[2]; 0.5 mg/kg intravenously, 10-20 s",−10 ± 3 mmHg
same,"Reduction of BP, mmHg (Δ)","[2]; 0.5 mg/kg intravenously, 5 min",−20 ± 8 mmHg
same,"Reduction of BP, mmHg (Δ)","[2]; 0.5 mg/kg intravenously, 30 min",−25 ± 8 mmHg
same,"Reduction of BP, mmHg (Δ)","[2]; 0.5 mg/kg intravenously, 60 min",−30 ± 7 mmHg
same,Duration of BP reduction,[2]; 1.0 mg/kg dose intravenous,3600 s
same,Reduction of BP (maximal effect),[2]; 1.0 mg/kg dose intravenous,25-30 mmHg
same,"Reduction of BP, mmHg (Δ)","[2]; 1.0 mg/kg intravenously, 10-20 s",−12 ± 3 mmHg
same,"Reduction of BP, mmHg (Δ)","[2]; 1.0 mg/kg intravenously, 5 min",−25 ± 7 mmHg
same,"Reduction of BP, mmHg (Δ)","[2]; 1.0 mg/kg intravenously, 30 min",−30 ± 7 mmHg
same,"Reduction of BP, mmHg (Δ)","[2]; 1.0 mg/kg intravenously, 60 min",−30 ± 8 mmHg
same,"Reduction of BP, mmHg (Δ)","[2]; 1.0 mg/kg intravenously, 120 min",−30 ± 8 mmHg
same,General toxicity and tolerability,[3],"non-toxic, well tolerated"
same,Neurotoxicity,[3]; relatively high doses,does not exhibit neurotoxicity
same,In vitro antiplatelet activity (inhibition of ADP-induced platelet aggregation),[4],significantly inhibits; also recorded: as good as that of acetylsalicylic acid
same,Increase of duration of parenchymal hemorrhage compared to original condition,"rat hemostasis; 8 mg/kg oral, 60 minutes after administration",71%
same,Duration of parenchymal hemorrhage,"rat hemostasis; 8 mg/kg oral, after another hour (control 88.9±1.2 s)",220.6 ± 3.4 s
same,Duration of parenchymal hemorrhage vs control,"rat hemostasis; 8 mg/kg oral, end of experiment (240 min)",did not differ from the control group
same,Duration of bleeding,"rat hemostasis; 16 mg/kg oral, first 60 min of the observation",increased twofold
same,Effect on rat hemostasis in the model of parenchymal hemorrhage,"rat hemostasis; rat, in vivo",statistically significantly slows down rat hemostasis
same,Lethality,[5],less than 50%
same,Effect on reduced ability of human neutrophils to generate reactive oxygen species,human neutrophils,briefly enhances
